One experiment concerns the target Sigma 2 receptor. The experiment in a line: Binding affinity of compound was measured towards Sigma receptor type 2 by using [3H]ditolylguanidine as radioligand. The arrangement: species or system Cavia porcellus.
The target in experiment [1] is T1, Sigma non-opioid intracellular receptor 1 (Homo sapiens, UniProt Q99720). The experiment in a line: Binding affinity for Sigma receptor type 1,using [3H](+)-pentazocine as radioligand.
In experiment [2] the target is T1, Sigma non-opioid intracellular receptor 1. The experiment in a line: Selectivity for sigma 2 compared to sigma 1 receptor.
Experiment [3] in a line: Binding affinity for Sigma receptor type 1,using [3H](+)-pentazocine as radioligand.

A value given as a limit tells only on which side of the number the result lay.

One may read the Ki as the equilibrium dissociation constant of an inhibitor or competing ligand from its target. Higher therefore signals weaker binding.

T1 sequence (Q99720 whole entry): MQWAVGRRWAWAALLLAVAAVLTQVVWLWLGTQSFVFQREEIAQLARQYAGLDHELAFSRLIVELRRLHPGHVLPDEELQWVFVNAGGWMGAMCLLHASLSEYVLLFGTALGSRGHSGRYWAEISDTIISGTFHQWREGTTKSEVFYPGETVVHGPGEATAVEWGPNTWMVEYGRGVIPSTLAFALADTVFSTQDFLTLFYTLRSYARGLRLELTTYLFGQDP

`C(CCCNCCc1ccccc1)=C(c1ccccc1)c1ccccc1` had a Ki on Sigma 2 receptor of 142 nM.
Take `CC1CCN(CCCC(c2ccccc2)c2ccccc2)CC1`: the Ki came to 1.1 nM in experiment [1] and 28 nM at Sigma 2 receptor. Also, the Selectivity in experiment [2] was 25.
For the compound `CC1CCN(CCC=C2c3ccccc3Sc3ccccc32)CC1`, the Ki turned out to be 0.8 nM in experiment [1] and 26 nM at Sigma 2 receptor. Moreover, in experiment [2], the Selectivity was 33.
Taken in the same sequence, the figures for `CCN(CC)CCCCC(O)(c1ccccc1)c1ccccc1` were 12 nM, 800 nM and 67.
Take `CN(CCCC=C(c1ccccc1)c1ccccc1)CCc1ccccc1`: the figures for the Ki (in experiment [1]; on Sigma 2 receptor) were 0.89 nM and 41 nM, respectively. Also, in experiment [2], the Selectivity is 46.
`CCN(CC)CCOC(=O)C(O)(c1ccccc1)c1ccccc1` [BENACTYZINE]: the Ki in experiment [1] is greater than 1000 nM.
On to `CCN(CC)CCCCC(c1ccccc1)c1ccccc1`, for which the Ki came to 1.4 nM in experiment [1] and 51 nM at Sigma 2 receptor. In addition, the Selectivity in experiment [2] amounted to 36.
For `CCCC(C(=O)OCCN(CC)CC)(c1ccccc1)c1ccccc1` [PROADIFEN], the Ki at Sigma 2 receptor turned out to be 1100 nM.
On to `CN1CCN(CC/C=C/c2ccccc2)CC1`, for which the Ki in experiment [1] turned out to be 29 nM; on Sigma 2 receptor, 1300 nM. In addition, the Selectivity in experiment [2] turned out to be 45.
Regarding `CN(CCCCC(c1ccccc1)c1ccccc1)CCc1ccccc1`, the results for the Ki (in experiment [1]; at Sigma 2 receptor) were 0.48 nM and 32 nM, respectively. Besides, the Selectivity in experiment [2] stood at 67.
In the case of `CC1CCN(CCC=C(c2ccccc2)c2ccccc2)CC1`, the Ki was found to be 1.9 nM in experiment [1] and 28 nM at Sigma 2 receptor. The Selectivity in experiment [2] stood at 15.
On to `c1ccc(CCNCCCCC(c2ccccc2)c2ccccc2)cc1`, for which the results for the Ki (in experiment [1]; on Sigma 2 receptor) were 0.66 nM and 100 nM, respectively. In experiment [2] (Cavia porcellus), this compound showed a Selectivity of 152.
The compound `CC1CCN(CCCCCc2ccccc2)CC1` showed a Ki in experiment [1] of 0.07 nM.
Turning to `CC1CCN(CCCC=C(c2ccccc2)c2ccccc2)CC1`, on Sigma 2 receptor, the affinity corresponds to a Ki of 25 nM. This counts as double-digit nanomolar.
Turning to `CN1CCN(CCCCc2ccccc2)CC1`, the Ki was found to be 20 nM in experiment [1] and 900 nM on Sigma 2 receptor. The same compound yielded a Selectivity in experiment [2] of 45.
With `CC1CCN(CCCCC(c2ccccc2)c2ccccc2)CC1`, the Ki in experiment [1] came to 0.09 nM; on Sigma 2 receptor, 17 nM. In experiment [2], this compound returned a Selectivity of 189.
With `CN1CCN(CC/C=C\c2ccccc2)CC1`, the figures for the Ki (in experiment [1]; on Sigma 2 receptor) were 29 nM and 2540 nM, respectively. The same compound had a Selectivity in experiment [2] of 88.
Take `CN(CCCCCc1ccccc1)CCc1ccccc1`: the affinity in experiment [3], expressed as Ki, was 0.25 nM.

The record behind these values is ChEMBL document CHEMBL1147560, “Thioxanthene-derived analogs as sigma(1) receptor ligands” (Bioorg Med Chem Lett, 2004).
